Read-outs that look alike come from different tables or passages of the source.
Tests used:
[1] = system: commensal Escherichia coli; experiment: microbe, parasite or virus in culture
Clostridium perfringens = experiment: microbe, parasite or virus in culture; type: cell-based
Enterococcus faecalis = experiment: microbe, parasite or virus in culture
[2] = for Daily feed intake / Live weight of piglets: dietary inclusion 1.0%
[3] = system: Salmonella enterica subsp enterica serovar Enteritidis; experiment: microbe, parasite or virus in culture
[4] = system: Salmonella enterica subsp enterica serovar Typhimurium; experiment: microbe, parasite or virus in culture
[5] = 0.5% in diet, 29 days
[6] = Growth performance of broiler chickens, floor pen trial over five weeks (Example 6); type: in vivo; settings: for numerical improvement of weight gain compared to the control: day 1 to day 36
Description: The objective of the present trial (Trial A) was to evaluate the effects of sucinic acid on the growth performance of broiler chickens in a floor pen trial over five weeks. Succinic acid was supplemented at four different dose levels. […] Each group was placed in one floor pen littered with wood shavings and allocated to one of the different treatments. Each treatment was replicated with 4 groups per sex. Birds had ad libitum access to feed and tap water. […] Chickens received diets based on soybean meal, and wheat as main ingredients (Table 6). […] The target quantities of succinic acid were added on top to the feed, mixed with appropriate amounts of maize starch as a carrier: […] For the statistical evaluation of the data, a one-factorial analysis of variance for each diet (factor: treatment) was carried out. Where significant treatment effects (p<0.05) were indicated, the differences among treatment means were subsequently analyzed with the Newman-Keuls test.

Q: For `O=C(O)CCC(=O)O` [Succinic acid, succinic acid], which MIC90 [1] is on record?
A: < 31.2 mM

Q: And the MIC90 (Clostridium perfringens)?
A: < 31.2 mM

Q: What about the MIC90 (Enterococcus faecalis) of the same compound?
A: < 31.2 mM

Q: And the Daily feed intake ([2]; Day 0-14)?
A: 368 g

Q: And the Daily feed intake ([2]; Day 14-24)?
A: 649 g

Q: What about the “Live weight of piglets” value ([2]; Day 14) of the same compound?
A: 12.01 kg

Q: And the Daily feed intake ([2]; Day 24-36)?
A: 869 g

Q: And the “Live weight of piglets” value ([2]; Day 24)?
A: 16.90 kg

Q: And the “Live weight of piglets” value ([2]; Final, day 36)?
A: 24.32 kg

Q: What about the “Live weight of piglets” value ([2]; Initial, day 0) of the same compound?
A: 8.51 kg

Q: And the Daily feed intake ([2]; Overall, day 0-36)?
A: 613 g

Q: And the “reduction of feed intake versus control” value ([2]; day 0-14, dietary level of 1.0%)?
A: −25.4%

Q: What about the MIC90 [3] of the same compound?
A: < 31.2 mM

Q: What about the MIC90 [4] of the same compound?
A: < 31.2 mM

Q: What about the “DWG numerically higher than control group” value [5] of the same compound?
A: 5%

Q: And the Weight gain ([5]; group B, n = 24)?
A: 6.57 ± 1.91 kg

Q: What about the Feed conversion ([6]; Day 1-22, 2.5 g/kg feed) of the same compound?
A: 1.365^B g feed/g gain

Q: And the Feed intake ([6]; Day 1-22, 2.5 g/kg feed)?
A: 1427^A g

Q: What about the Weight gain ([6]; Day 1-22, 2.5 g/kg feed) of the same compound?
A: 1046^A g

Q: What about the Feed conversion ([6]; Day 1-22, 5 g/kg feed) of the same compound?
A: 1.461^A g feed/g gain

Q: And the Feed intake ([6]; Day 1-22, 5 g/kg feed)?
A: 1446^A g

Q: What about the Weight gain ([6]; Day 1-22, 5 g/kg feed) of the same compound?
A: 991^BC g

Q: And the Feed conversion ([6]; Day 1-22, 7.5 g/kg feed)?
A: 1.372^B g feed/g gain

Q: What about the Feed intake ([6]; Day 1-22, 7.5 g/kg feed) of the same compound?
A: 1445^A g

Q: And the Weight gain ([6]; Day 1-22, 7.5 g/kg feed)?
A: 1054^A g

Q: What about the Feed conversion ([6]; Day 1-22, 10 g/kg feed) of the same compound?
A: 1.381^B g feed/g gain

Q: And the Feed intake ([6]; Day 1-22, 10 g/kg feed)?
A: 1430^A g

Q: And the Weight gain ([6]; Day 1-22, 10 g/kg feed)?
A: 1036^AB g

Q: And the Feed conversion ([6]; Day 1-36, 2.5 g/kg feed)?
A: 1.602^A g feed/g gain

Q: And the Feed intake ([6]; Day 1-36, 2.5 g/kg feed)?
A: 3817^A g

Q: What about the Weight gain ([6]; Day 1-36, 2.5 g/kg feed) of the same compound?
A: 2383^A g

Q: And the Feed conversion ([6]; Day 1-36, 5 g/kg feed)?
A: 1.642^A g feed/g gain

Q: What about the Feed intake ([6]; Day 1-36, 5 g/kg feed) of the same compound?
A: 3793^A g

Q: What about the Weight gain ([6]; Day 1-36, 5 g/kg feed) of the same compound?
A: 2311^A g

Q: What about the Feed conversion ([6]; Day 1-36, 7.5 g/kg feed) of the same compound?
A: 1.612^A g feed/g gain

Q: And the Feed intake ([6]; Day 1-36, 7.5 g/kg feed)?
A: 3870^A g

Q: And the Weight gain ([6]; Day 1-36, 7.5 g/kg feed)?
A: 2404^A g

Q: What about the Feed conversion ([6]; Day 1-36, 10 g/kg feed) of the same compound?
A: 1.651^A g feed/g gain

Q: And the Feed intake ([6]; Day 1-36, 10 g/kg feed)?
A: 3868^A g

Q: And the Weight gain ([6]; Day 1-36, 10 g/kg feed)?
A: 2347^A g

Q: And the Feed conversion ([6]; Day 22-36, 2.5 g/kg feed)?
A: 1.790^A g feed/g gain

Q: What about the Feed intake ([6]; Day 22-36, 2.5 g/kg feed) of the same compound?
A: 2392^A g

Q: And the Weight gain ([6]; Day 22-36, 2.5 g/kg feed)?
A: 1337^A g

Q: What about the Feed conversion ([6]; Day 22-36, 5 g/kg feed) of the same compound?
A: 1.786^A g feed/g gain

Q: And the Feed intake ([6]; Day 22-36, 5 g/kg feed)?
A: 2347^A g

Q: What about the Weight gain ([6]; Day 22-36, 5 g/kg feed) of the same compound?
A: 1320^A g

Q: And the Feed conversion ([6]; Day 22-36, 7.5 g/kg feed)?
A: 1.806^A g feed/g gain

Q: What about the Feed intake ([6]; Day 22-36, 7.5 g/kg feed) of the same compound?
A: 2431^A g

Q: What about the Weight gain ([6]; Day 22-36, 7.5 g/kg feed) of the same compound?
A: 1350^A g

Q: And the Feed conversion ([6]; Day 22-36, 10 g/kg feed)?
A: 1.870^A g feed/g gain

Q: And the Feed intake ([6]; Day 22-36, 10 g/kg feed)?
A: 2442^A g

Q: And the Weight gain ([6]; Day 22-36, 10 g/kg feed)?
A: 1311^A g

Q: What about the “numerical improvement of weight gain compared to the control” value ([6]; 2.5 g per kg feed) of the same compound?
A: 3.6%

Q: And the “numerical improvement of weight gain compared to the control” value ([6]; 7.5 g per kg feed)?
A: 4.5%

Q: What about the “improvement of weight gain compared to the control” value ([6]; starter period (day 1-22), across the different inclusion levels) of the same compound?
A: 3.9% to 10.5

Q: What does the source list for `O=C(O)CC(O)(CC(=O)O)C(=O)O` [citric acid, reference compound]?
A: MIC90 [1]: < 31.2 mM; MIC90 (Clostridium perfringens): < 31.2 mM; MIC90 (Enterococcus faecalis): < 31.2 mM; MIC90 [3]: < 31.2 mM; MIC90 [4]: < 31.2 mM

Q: Which results are given for `COC[C@H]1O[C@@H](OC2OC[C@@H]3O[C@]4(O[C@H]3[C@H]2OC(=O)C(C)C)O[C@H](C)[C@@](O)(C(C)=O)[C@@H]2OCO[C@H]24)[C@@H](OC)[C@@H](O)[C@@H]1O[C@@H]1O[C@H](C)[C@H](OC)[C@H](O[C@H]2C[C@@]3(C)OC4(C[C@@H](O)[C@H](O[C@H]5C[C@@H](O)[C@H](OC(=O)c6c(C)c(Cl)c(O)c(Cl)c6OC)[C@@H](C)O5)[C@@H](C)O4)O[C@@H]3[C@@H](C)O2)[C@H]1O` (stereo partly drawn) [Avilamycin, reference compound]?
A: Feed conversion ([6]; Day 1-22, 10 mg/kg feed): 1.462^A g feed/g gain; Feed conversion, relative to control (100) ([6]; Day 1-22, 10 mg/kg feed): 101.0; Feed intake ([6]; Day 1-22, 10 mg/kg feed): 1450^A g; Weight gain ([6]; Day 1-22, 10 mg/kg feed): 992^BC g; Weight gain, relative to control (100) ([6]; Day 1-22, 10 mg/kg feed): 104.1; Feed conversion ([6]; Day 1-36, 10 mg/kg feed): 1.638^A g feed/g gain; Feed conversion, relative to control (100) ([6]; Day 1-36, 10 mg/kg feed): 100.9; Feed intake ([6]; Day 1-36, 10 mg/kg feed): 3860^A g; Weight gain ([6]; Day 1-36, 10 mg/kg feed): 2359^A g; Weight gain, relative to control (100) ([6]; Day 1-36, 10 mg/kg feed): 102.5; Feed conversion ([6]; Day 22-36, 10 mg/kg feed): 1.769^A g feed/g gain; Feed conversion, relative to control (100) ([6]; Day 22-36, 10 mg/kg feed): 101.1; Feed intake ([6]; Day 22-36, 10 mg/kg feed): 2412^A g; Weight gain ([6]; Day 22-36, 10 mg/kg feed): 1366^A g; Weight gain, relative to control (100) ([6]; Day 22-36, 10 mg/kg feed): 101.4

From patent publication US20110189347A1 (priority 2008, published 2011)
